{"source": "patent US20230075822A1", "about": "“USE OF CASTALAGIN OR ANALOGS THEREOF FOR ANTI-CANCER EFFICACY AND TO INCREASE THE RESPONSE TO IMMUNE CHECKPOINT INHIBITORS” (THE ROYAL INSTITUTION FOR THE ADVANCEMENT OF …, priority 2020, published 2023)", "key": {"[1]": {"test_system": "Ruminococcaceae", "assay": "qRT-PCR with Ruminococcaceae-specific primers on mouse feces", "type": "in vivo, mice", "settings": "6 days of oral gavage, vs water", "description": "FIG. 9J is a graph showing the effect of castalagin treatment (0 mg/kg, 1/4×, 0.21 mg/kg, 1×, 0.85 mg/kg, and 3×, 2.55 mg/kg) on the amount of Ruminococcaceae in the feces. Real-time PCR was performed on DNA extracted from mouse stools after 6 days of oral gavage with water or castalagin at 0.21 mg/kg, 0.85 mg/kg and 2.55 mg/kg using specific primers for Ruminococcaceae detection in MCA-205-bearing, SPF-reared mice (n=5). *p<0.05, **p<0.01.\nFIG. 13 is a graph depicting the results of qPCR assays performed on DNA extracted from mouse stools after 6 days of oral gavage with water or castalagin at 0.85 mg/kg using specific primers for Ruminococcaceae detection in MCA-205—bearing, SPF-reared mice (n=10). *p<0.05,\nGenomic DNA extraction from mouse feces. Total genomic DNA from fecal pellets was extracted using ZymoBIOMICS DNA Miniprep Kit (Zymo Research Corporation) and immediately stored at -80° C. This protocol involves a bead beating step to ensure full recovery of bacterial DNA. DNA concentration and quality were measured using the Nanodrop ND-1000 (ThermoFisher).\nQuantitative real-time PCR (qRT-PCR). Quantitative real-time PCR was performed to evaluate the relative levels of the total bacterial DNA and the V6 region of the 16S rRNA gene was amplified using the primer set 891F (5′-[…]-3′, SEQ ID NO:1) and 1033R (5′-TGCGGGACTTAACCCAACA-3′, SEQ ID NO:2) (Anhê et al. Diabetologia. 2018 April; 61(4):919-931) and specifically to evaluate the relative levels of the Ruminococcaceae DNA using the specific primers F (5′-[…]-3′, SEQ ID NO:3) and R (5′-[…]-3′, SEQ ID NO:4) (Garcia-Mazcorro JF et al FEMS Microbiol Ecol 2012; 80(3):624-36). DNA (400ng/well) extracted was combined with 500 nM of the above described primer mix and 1× qPCRBIO SyGreen blue Mix Hi-ROX (PCRBIOSystems). The qPCR reaction was performed on the Applied Biosystems StepOnePlus Real-Time PCR System (ThermoFisher Scientific) at 95° C. for 3min to denature DNA, with amplification proceeding for 40 cycles at 95° C. for 5s, 60° C. for 30 s, and completed with a melt curve stage. Raw threshold cycle (Ct) values were compared to a bacterial standard curve produced with Escherichia coli DNA for the 16s analysis and with Ruminoccocus bicirculans for the Rumniccocaceae analysis for approximation of bacterial load."}, "[2]": {"test_system": "MCA-205 sarcoma", "assay": "Subcutaneous MCA-205 sarcoma tumor model (anti-PD-1 sensitive), SPF-reared mice", "type": "in vivo, C57BL/6 mice", "settings": "for anti-cancer activity (tumor size at sacrifice): in the presence of anti-PD-1", "description": "FIG. 1A is a schematic of the protocol used to study the effect of a Camu camu extract (CC) alone and additive effect when combined to anti-PD-1 therapy in a murine tumor model sensitive to anti-PD-1 therapy. Syngeneic C57BL/6 mice were implanted with 0.8×10^6 MCA-205 sarcoma, subcutaneously and treated intraperitoneally (i.p.) when tumors reached 20 to 35 mm^2 in size with anti-PD-1 mAb (250 μg/mouse; clone RMP1-14,) or isotype control (clone 2A3) with or without daily oral gavage with 200 mg/kg of [NT] Powder from SunFood). Murine studies. All animal studies were approved by the Institutional Animal Care Committee (CIPA) and carried out in compliance with the Canadian Council on Animal Care guidelines. Murine experiments were conducted using seven-week-old female C57BL/6 mice, obtained from Charles River, Canada. Germ-free female C57BL/6 mice were purchased from the International Microbiome Centre Germ-Free Facility (University of Calgary, Canada) and maintained at the CR-CHUM Germ-Free Facility. Cell culture, reagents and tumor cell lines. MCA-205 fibrosarcoma cells and E0771 mammary adenocarcinoma cells, class I MHC H-2b syngeneic cell lines for C57BL/6 mice, were used for this study. MCA-205 cells were cultured at 37° C. in the presence of 5% CO2 in Roswell Park Memorial Institute (RPMI) 1640 (Gibco-lnvitrogen) containing 10% Fetal bovine serum (FBS) (Wisent), 2 mM L-glutamine (Wisent), 100 IU/ml penicillin/streptomycin (Wisent), 1 mM sodium pyruvate (Wisent) and MEM non-essential amino acids (Gibco-lnvitrogen). E0771 cells were cultured at 37° C. in the presence of 5% CO2 in Dulbecco's Modified Eagle's Medium (DMEM) (Gibco-lnvitrogen) containing 10% FBS (Wisent), 2 mM L-glutamine, 100 IU/ml penicillin/streptomycin (Wisent), 1 mM sodium pyruvate (Wisent). Subcutaneous model of MCA-205 sarcoma and E0771 breast cancer. Syngeneic C57BL/6 mice were implanted with 0.8×10^6 MCA-205 or 0.5×10^6 E0771 subcutaneously. When tumors reached 20 to 35 mm^2 in size, mice were treated four times (or two times for flow cytometry analysis, see section below) intraperitoneally (i.p.) every three day with anti-PD-1 monoclonal antibody (mAb) (250 μg/mouse; clone RMP1-14, BioXcell) or isotype control (clone 2A3, BioXcell). Upon treatment initiation, mice received a daily oral gavage with the following products: Myrciaria dubia, [NT] raw extract (Sunfood) (200 mg/kg per mouse), fractions from the extraction round 1 (P, INT, NP, Insol) (40.18 mg/kg per mouse), fractions from the extraction round 2 (P1, P2, P3 and P4) (equivalent to fraction P dose of 40.18 mg/kg per mouse), […] (extracted from CC, see isolation process below) (0.85 mg/kg per mouse), ellagic acid (0.85 mg/kg per mouse) (Sigma-Aldrich), urolithin A (0.85 mg/kg per mouse) (Sigma-Aldrich), […] (0.5 mg/kg per mouse) (PhytoProof®, Sigma-Aldrich) and castalagin at different concentration: 1/8, 1/6, 1/4, 1/2 of the standard concentration, at the standard concentration (0.85 mg/kg per mouse), 1.5-fold (1.25 mg/kg per mouse) and three-fold increase concentration (2.55 mg/kg per mouse) (PhytoProof©, Sigma-Aldrich or isolated from food grade oak, see isolation process below). In the control group mice received daily oral gavage with water (100 μL) Tumor area was routinely monitored every three days by means of a caliper. In the depletion experiments, we used the anti-CD8 mAb (150 μg/mouse; clone 53-6.7, BioXcell) or isotype control (clone 2A3, BioXcell."}}, "data": [{"molecule": "O=C1OC[C@H]2OC(=O)c3cc(O)c(O)c(O)c3-c3c(O)c(O)c(O)c4c3C(=O)O[C@H]([C@H]3OC(=O)c5c-4c(O)c(O)c(O)c5[C@@H]3O)[C@@H]2OC(=O)c2cc(O)c(O)c(O)c2-c2c1cc(O)c(O)c2O", "note": "[castalagin, Castalagin]", "values": [{"measurement": "Ruminococcaceae abundance (qRT-PCR)", "setting": "[1]; 1/4 concentration dose (0.21 mg/kg)", "result": "not increase"}, {"measurement": "Ruminococcaceae abundance (qRT-PCR), duplicated experiment", "setting": "[1]; castalagin 0.85 mg/kg, n=10", "result": "increase of Ruminococcaceae"}, {"measurement": "Ruminococcaceae abundance (qRT-PCR)", "setting": "[1]; standard castalagin dose (0.85 mg/kg)", "result": "significantly increased"}, {"measurement": "Ruminococcaceae abundance (qRT-PCR)", "setting": "[1]; three-fold standard castalagin dose (2.55 mg/kg)", "result": "significantly increased"}, {"measurement": "dose dependence of anti-cancer activity", "setting": "[2]; 6 concentrations from ⅛ to 3-fold the standard dose", "result": "dose-dependent effect with a potential plateau"}, {"measurement": "antitumor effect", "setting": "[2]; dose experiment, 1/4 concentration dose (0.21 mg/kg)", "result": "no antitumor effect"}, {"measurement": "anti-cancer activity (tumor size at sacrifice)", "setting": "[2]; dose experiment, 3-fold concentration (2.55 mg/kg per mouse)", "result": "did not the standard dose"}, {"measurement": "anti-cancer activity (tumor size at sacrifice)", "setting": "[2]; dose experiment, standard dose (0.85 mg/kg)", "result": "anti-cancer activity became significant"}, {"measurement": "anti-cancer activity (tumor size at sacrifice)", "setting": "[2]; dose experiment, ½ dose (0.42 mg/kg)", "result": "Some anti-cancer activity was observed"}]}]}
